Source: US10428043B2, “Green oxidation catalytic system” (TRUSTEES OF BOSTON UNIVERSITY, priority 2014, dated 2019)
Values joined by “and” are separate entries in the source; they are usually repeats but may differ in a detail not shown here. Identical values can stand only once. Like-named read-outs stand apart in the source and are kept apart here.

How the values were obtained:
[1] = Cyclic voltammetry, redox potentials; type: physicochemical
Description: All reagents and solvents used were purchased from commercial sources and used as received unless otherwise noted. Prior to use, methanol (Pharmco-Aaper) was distilled over magnesium metal, dimethyl sulfoxide (Fisher Scientific) was distilled over calcium hydride, triethylamine was distilled over sodium metal and unstabilized dichloromethane (Fisher Scientific) was distilled over calcium hydride. Ferrocene was purified by sublimation for use as a reference for electrochemical analyses. All manipulations involving ferrous complexes were carried out in an inert atmosphere glovebox (M. Braun, Stratham, N.H.) with distilled and thoroughly degassed solvents. UV/Vis spectra were collected using a Hewlett Packard Spectrometer (8453). IR spectra were collected using a Thermo Nicolet AVATAR 330-FT-IR. Cyclic voltammetry experiments were performed using a Princeton Applied Research model 273 potentiostat with a glassy carbon working electrode, a silver wire reference electrode and a platinum wire counter electrode. Electron Paramagnetic Resonance (EPR) spectra were collected on a Bruker ESP-300E spectrometer operating at 9.460 GHz. NMR spectra were recorded at 25° C. using a Varian spectrometer operating at 400 MHz with all chemical shifts referenced to SiMe4. Iron concentrations were determined using a Varian AA240Z Atomic Absorption Spectrometer.
Cyclic voltammetry was performed inside an inert atmosphere (N2) box, with degassed DMSO as the solvent and tetra-N-butylammonium hexafluorophosphate as the supporting electrolyte (0.2M). The ferrocenium/ferrocene couple was used as an internal reference; reduction potential values were corrected by assigning the ferrocenium/ferrocene couple to 0.64 V versus NHE (Zanello, P. Inorganic Electrochemistry; The Royal Society of Chemistry: Cambridge, 2003). Chloride titration experiments were performed by collecting CV data after the addition of one and two 50 μL aliquots of 204 mM [NEt4][Cl] to 3.0 mL of 3.4 mM [Fe^II(N2O1py)(Cl)2]^− (concentration determined using flame atomic absorption spectroscopy) and correcting the potential with reference to the ferrocenium/ferrocene couple.
It should be noted that these redox potentials were determined in the absence of excess halide, and further CV studies will be performed in the presence of excess halide for all derivatives of the N2O1py system.

[2] = Low-temperature stopped-flow kinetics of adduct complexes with dioxygen; conditions: complex 0.94-1.1 mM, O2 5 mM, methanol, −85° C.
Method: (§1) Stopped-flow Spectroscopy and Data analysis.
Kinetic studies of [Fe^II(N2O1)(α-KG)(CH3OH)]^− and [Fe^II(N2O1)(p-X-BF)(CH3OH)]^− adduct complexes with dioxygen. Low-temperature stopped flow studies of this reaction were performed.
Order dependence analysis.
The kinetic model was built by starting from simple two- and three-exponential processes.
Stoichiometry of the equations for the proposed model in FIG. 29: […]

[3] = Catalytic oxidation of methanol to formaldehyde with α-KG and O2 (Nash assay); conditions: for Total TON / TON: Methanol; for TON: product Formaldehyde
[4] = Room temperature O2 reactivity of ferrous complexes followed by UV/vis
Method: The solution was transferred to an anaerobic UV/vis cell and sealed. An initial spectrum was obtained of the ferrous complex, and then the solution was exposed to the air. Spectra were recorded every minute for the first two minutes and then every 5-30 minutes after that for seven hours. The absorbance was monitored at 350 nm to follow formation of the oxidized complex.
This solution was then transferred to an anaerobic UV/vis cell and sealed. An initial spectrum was obtained of the ferrous complex, and then the solution was exposed to the air. Spectra were collected every minute for the first 30 minutes and then every 5-20 minutes after that for 2 hours. The absorbance was monitored at 315 nm to follow formation of the oxidized complex.

[5] = cited from earlier work; for second order rate constant k of NO binding: 20° C., stopped-flow with laser flash photolysis
[6] = Stopped-flow kinetics of NO binding at −85° C. in methanol; conditions: NO 6.4 mM
Description: as §1

[7] = Low-temperature stopped-flow kinetics of binding of α-KG to 17; conditions: 17 + α-KG
[8] = Reactivity with α-KG, O2 and cyclooctane (GC-MS); conditions: Cyclooctane
Method: (§2) Reactivity Studies. […] (10-20 mM).

[9] = Reactivity with α-KG, O2 and cyclohexene (GC); conditions: Cyclohexene
[10] = Low-temperature stopped-flow kinetics of binding of p-CH3-BF to 17; conditions: 17 + p-CH3-BF
[11] = cited from earlier work
[12] = Reactivity with α-KG, O2 and 9,10-dihydroanthracene (GC-FID); conditions: O2, [Fe] 10.1 μM
Method: as §2
(17) with α-KG, 02, and 9,10-dihydroanthracene.

[13] = Reactivity with α-KG, O2 and 2,4-di-tert-butyl phenol (GC-FID); conditions: O2, [Fe] 9.6 μM
Method: as §2

[14] = estimated value for the functional group; cited from earlier work
[15] = DMSO, glassy carbon working electrode, absence of excess halide
[16] = calculated from redox potentials for the one-electron transfer between iron and dioxygen

Compound: C#Cc1ccnc(CN(C)CC(=O)[O-])c1.CC[NH+](CC)CC.CO.[Cl-].[Cl-].[Fe+2] [[Fe^II(N2O1py-alkyne)], [C6H16N][Fe^II(N2O1-alkyne)(MeOH)(Cl)2]]
- E1/2 [1, 15]: 270 mV

Compound: CN(C)CCN(C)CC(=O)[O-].CO.Nc1ccc(C(=O)C(=O)[O-])cc1.[Fe+2] [compound 26, [Fe^II(N2O1)(p-NH2-BF)(CH3OH)]]
- k′1 [2]: 8.5 ± 1.8 s⁻¹
- k′2 [2]: 2700 ± 300 M⁻¹ s⁻¹
- k′3 [2]: 1.0 ± 0.2 s⁻¹
- k′4 (k′4obs) [2]: 1.7 ± 0.4 s⁻¹

Compound: CN(CC(=O)[O-])Cc1ccccn1.O=C([O-])CCC(=O)C(=O)[O-].[Fe+2] [[Fe^II(N2O1py)(αKG)]]
- turnover number (equivalents of formaldehyde per iron center) ([3]; N2O1py system, iron complex 1.0 μM, five equivalents [Na][αKG], O2, 60 min): 33
- turnover number (equivalents of formaldehyde per equivalent of iron) ([3]; N2O1py system, iron complex 100 μM, five equivalents [Na][αKG], O2, 60 min): 0.7
- time for reaction with O2, in words ([4]; αKG adduct): within minutes

Compound: O.O.O=C([O-])CN(CCN(CC(=O)[O-])CC(=O)O)CC(=O)[O-].[Cl-].[K+].[Ru+3] [K[Ru^III(Hedta)Cl].2H2O]
- rate k of reaction with NO ([5]; room temperature, aqueous solution, depending on pH): 38000 to 120000 M⁻¹ s⁻¹
- k20 (loss of a ligand before NO binding) [6]: 8.2 s⁻¹
- k21 (second order, NO binding) [6]: 127 M⁻¹ s⁻¹

Compound: CN(C)CCN(C)CC(=O)[O-].[Cl-].[Cl-].[Fe+2].[Na+] [compound 17, [Fe^II(N2O1)Cl2][Na]]
- k15 ([7]; methanol, −85° C.): 9.6 M⁻¹ s⁻¹ and 10 ± 0.2 M⁻¹ s⁻¹
- k16 ([7]; methanol, −85° C.): 1.7 s⁻¹ and 1.7 ± 0.5 s⁻¹
- k17 ([7]; methanol, −85° C.): 0.53 s⁻¹ and 0.5 ± 0.1 s⁻¹
- ΔH^‡ of k15 ([7]; −85 to −70° C.): 8.6 ± 0.48 kcal/mol
- ΔH^‡ of k16 ([7]; −85 to −70° C.): 12 ± 1.2 kcal/mol
- ΔH^‡ of k17 ([7]; −85 to −70° C.): 11.2 ± 1.4 kcal/mol
- ΔS^‡ of k16 ([7]; −85 to −70° C.): 31.3±23 J mol^−1 K^−1 and 31 ± 23 J mol^−1 K^−1
- ΔS^‡ of k17 ([7]; −85 to −70° C.): 3 ± 1 J mol^−1 K^−1
- Total TON ([8]; Air, [Fe] 1.1 μM): 317
- TON ([8]; Air, [Fe] 1.1 μM, product Cyclooctanol): 189
- TON ([8]; Air, [Fe] 1.1 μM, product Cyclooctanone): 64
- Total TON ([8]; O2, [Fe] 1.1 μM): 305
- TON ([8]; O2, [Fe] 1.1 μM, product Cyclooctanol): 182
- TON ([8]; O2, [Fe] 1.1 μM, product Cyclooctanone): 62
- Total TON ([8]; O2, [Fe] 9.7 μM): 40
- TON ([8]; O2, [Fe] 9.7 μM, product Cyclooctanol): 24
- TON ([8]; O2, [Fe] 9.7 μM, product Cyclooctanone): 7.8
- Total TON ([9]; O2, [Fe] 9.6 μM): 520
- Total TON ([9]; O2, [Fe] 9.6 μM + TEMPO): 414
- TON ([9]; O2, [Fe] 9.6 μM + TEMPO (6 × 10^4 excess), product Cyclohexene oxide): 53
- TON ([9]; O2, [Fe] 9.6 μM + TEMPO, product 2-Cyclohexen-1-ol): 240
- TON ([9]; O2, [Fe] 9.6 μM + TEMPO, product 2-Cyclohexen-1-one): 60
- TON ([9]; O2, [Fe] 9.6 μM, product 2-Cyclohexen-1-ol): 249
- TON ([9]; O2, [Fe] 9.6 μM, product 2-Cyclohexen-1-one): 70
- TON ([9]; O2, [Fe] 9.6 μM, product Cyclohexene oxide): 132
- k15 ([10]; methanol, −85° C.): 45.3 M⁻¹ s⁻¹ and 45 ± 5 M⁻¹ s⁻¹
- k16 ([10]; methanol, −85° C.): 12 ± 1 s⁻¹
- k17 ([10]; methanol, −85° C.): 1.2 ± 0.1 s⁻¹
- ΔH^‡ of k15 ([10]; −85 to −70° C.): 8.37 ± 0.48 kcal/mol
- ΔH^‡ of k16 ([10]; −85 to −70° C.): 10 ± 2.2 kcal/mol
- ΔH^‡ of k17 ([10]; −85 to −70° C.): 9.08 ± 0.24 kcal/mol
- ΔS^‡ of k16 ([10]; −85 to −70° C.): 1.5 ± 0.9 J mol^−1 K^−1
- ΔS^‡ of k17 ([10]; −85 to −70° C.): 36.9±15 J mol^−1 K^−1 and 37 ± 15 J mol^−1 K^−1
- solubility ([11]; DMF and DMSO): only slightly soluble
- solubility ([11]; other common polar and nonpolar aprotic solvents, including CH3CN, CH2Cl2, THF, Et2O, toluene and ethyl acetate): insoluble
- solubility ([11]; protic solvents): soluble
- Total TON [12]: 128
- TON ([12]; product Anthracene): 54
- TON ([12]; product Anthraquinone): 26
- TON ([12]; product Anthrone): 21
- Total TON [13]: 619
- TON ([13]; product 3,3′-5,5′-terta-t-butyl-2,2′-dihydroxybiphenyl): 619
- Total TON ([3]; O2, [Fe] 1.0 μM): 285
- TON ([3]; O2, [Fe] 1.0 μM): 285
- Total TON ([3]; O2, [Fe] 6.2 μM): 54
- TON ([3]; O2, [Fe] 6.2 μM): 54
- Total TON ([3]; O2, [Fe] 8.0 μM): 36
- TON ([3]; O2, [Fe] 8.0 μM): 36
- Total TON ([3]; O2, [Fe] 12.5 μM): 22
- TON ([3]; O2, [Fe] 12.5 μM): 22
- Total TON ([3]; O2, [Fe] 100 μM): 3.5
- TON ([3]; O2, [Fe] 100 μM): 3.5
- Total TON ([3]; O2, [Fe] 200 μM): 2.1
- TON ([3]; O2, [Fe] 200 μM): 2.1
- Total TON ([3]; O2, [Fe] 300 μM): 1.3
- TON ([3]; O2, [Fe] 300 μM): 1.3
- Total TON ([3]; O2, [Fe] 500 μM): 0.82
- TON ([3]; O2, [Fe] 500 μM): 0.82
- Total TON ([3]; O2, [Fe] 2500 μM): 0.46
- TON ([3]; O2, [Fe] 2500 μM): 0.46
- Total TON ([3]; O2, [Fe] 5000 μM): 0.39
- TON ([3]; O2, [Fe] 5000 μM): 0.39
- time for formation of the diferric oxo-bridged product on reaction with O2 ([4]; methanol): ~6 h
- E1/2 [1, 15]: 159 mV
- Keq [1, 16]: 1.1 × 10^−8
- ΔG° [1, 16]: 45 kJ
- E1/2 ([1]; no added halide, in mV): +159

Compound: N#C[N-]C#N.N#C[N-]C#N.N#C[N-]C#N.N#C[N-]C#N.N#C[N-]C#N.[Cl-].[Fe+2] [[Fe^II(dca)5Cl]^4−]
- second order rate constant k of NO binding [5]: 1.7e+07 M⁻¹ s⁻¹

Compound: CN(C)CCN(C)CC(=O)[O-].[Cl-].[Cl-].[Cl-].[Fe+3] [Fe^III N2O1, [Fe^III(N2O1)(Cl)3]]
- E1/2 ([1]; no added halide, in mV): +136

Compound: CN(C)CCN(C)CC(=O)[O-].CO.N#Cc1ccc(C(=O)C(=O)[O-])cc1.[Fe+2] [compound 25, [Fe^II(N2O1)(p-CN-BF)(CH3OH)]]
- k′1 [2]: 8.7 ± 1.2 s⁻¹
- k′2 [2]: 140 ± 12 M⁻¹ s⁻¹
- k′3 [2]: 60 ± 5 s⁻¹
- k′4 (k′4obs) [2]: 0.2 ± 0.02 s⁻¹

Compound: CN(C)c1cccc2cccc([NH+](C)C)c12.CN(CC(=O)[O-])Cc1ccccn1.[Cl-].[Cl-].[Cl-].[Fe+3] [Fe^III N2O1py, [PSH][Fe^III(N2O1py)(Cl)3]]
- ΔE ([1]; no added halide): 128 mV
- E1/2 ([1]; no added halide, in mV): +189

Compound: CN(CC(=O)O)Cc1ccccn1 [[H2N2O1py]^+, 2-(methyl(pyridine-1-ium-2-ylmethyl)ammonio)acetate]
- estimated pKa, carboxylic acid [14]: ~4.8
- estimated pKa, pyridinium [14]: ~5.2
- estimated pKa, tertiary ammonium [14]: ~10

Compound: O.O.O.O.O.O.[Fe+2] [[Fe(H2O)6)]^2+]
- second order rate constant k of NO binding [5]: 1.42e+06 M⁻¹ s⁻¹
